Data on one substance can be found in US20130023504A1, “Modulation of Prostaglandin/Cyclooxygenase Metabolic Pathways” (HUNTER-FLEMING LIMITED, priority 2006, published 2013).

What all share (format): cell-based
The subject of experiment [1] is rat sensory neurones. As to the kind of experiment: Cisplatin-induced loss of neurite density in primary dorsal root ganglia sensory neurones (anti β-Tubulin). The conditions noted are these: 10 ng/ml, cisplatin 3 μg/ml. As to the method:
(§1) Primary cultures of dissociated dorsal root ganglia sensory neurones were incubated with 3 μg/ml cisplatin, with and without 7β-OH EPIA for 48 hours and 72 hours and the following parameters were evaluated:
neurite network density stained with an anti 8-Tubulin antibody
(§2) Rat sensory neurones were prepared according to the method described by Hall et al 1997 [Hall et al. (J. Neurosci. 1997 Apr. 15; 17(8); 2775-84]. Briefly, a female rat (15 days gestation) was killed by cervical dislocation (Rats Wistar; Janvier, Le Genest-St-lsle, France) and the foetuses removed from the uterus. Their spinal cords with the dorsal root ganglia (DRG) were removed and placed in ice-cold medium of Leibovitz (L15, Fisher 11415-049) containing Penicillin 50 UI/ml-Streptomycin 50 μg/ml (PS, 1%) and bovine serum albuminutes (BSA 1%, Sigma A6003). The DRG were recovered and dissociated by trypsinisation for 20 minutes at 37° C. (trypsin EDTA 10×, 10%, Fisher 15400054) diluted in PBS without calcium and magnesium (Fisher 2007-03). The reaction was stopped by addition of Dulbecco modified Eagle medium (DMEM, Fisher 21969-035) containing DNase I grade II (0.1 mg/ml Roche diagnostic 104159) and foetal bovine serum (FBS 10%, Fisher 10270-098). The cell suspension was triturated with a 10 ml pipette and centrifuged at 350×g for 10 minutes at room temperature. The pellet of dissociated cells was then resuspended in defined culture medium.
(§3) Viable cells were counted in a Neubauer cytometer using the trypan blue exclusion test (Sigma) and seeded at a density of 30 000 cells/well in 96 well-plates (Nunc). Wells were pre-coated with poly-L-lysine (10 μg/ml, Sigma P2636) in ultra pure sterile water (Merck Eurolab 60759.01).
(§4) Cells were allowed to adhere for 2 h and maintained in a humidified incubator at 37° C. in 5% CO2/95% air atmosphere.
(§5) After 5 days of culture, the culture medium was changed into a defined culture medium following the different conditions described below:
(§6) Test compound 7β-OH EPIA (1 nM, 10 nM and 100 nM)+cisplatin (3 μg/ml)
(§7) Reference compound NGF (10 ng/ml)+cisplatin (3 μg/ml)
(§8) Six wells per condition were carried out to assess neuronal survival. After 48 hours and 72 hours of incubation, the neuronal cells were fixed for 5 minutes in an ethanol/acetic acid solution (95%/5%) at −20° C. and rinsed 3 times in PBS.
(§9) Cell bodies of sensory neurones were labelled by monoclonal anti MAP-2 antibody (Sigma M4403) and the neurite of sensory neurones were labelled by monoclonal β-Tubulin antibody (Sigma T8660). These antibodies were diluted at 1:400 in incubation solution (PBS with 5% of FCS and 0.1% of saponin, Sigma S-7900). These antibodies specifically label neurone cell bodies and neuritis, respectively.
(§10) After 2 hours of incubation, the cells were washed in PBS and incubated with Alexa Fluor 488 goat anti mouse IgG (Molecular Probes A11001) diluted at 1:300 in incubation solution to reveal the MAP-2 and the β-Tubulin antibodies. Cell nuclei were stained with a fluorescent marker (Hoechst staining solution, SIGMA H6024, 1 μg/ml in incubation solution during 1 hour).
(§11) For each condition, 2 pictures per well (12 pictures per condition) were taken using In Cell Analyzer 1000 (Amersham Biosciences) controlled by the computer software In Cell Analyzer 1000 3.2. For the MAP-2 labelling, the magnification was ×10, for the β-Tubulin labelling, the magnification was ×20. For each labelling, all the images were taken in the same conditions.
(§12) Analysis of the number of cell bodies labelled with anti-MAP-2 antibodies, and total length of neurites labelled with anti β-Tubulin antibodies, were carried out using In Cell Analyzer 1000 3.2.Workstation software. The results were expressed in percentage compared to the vehicle. The comparisons of each group were carried out using the unpaired T test.

Experiment [2] has as its system rat sensory neurones. As to the kind of experiment: Cisplatin-induced neuronal cell death, number of cell bodies per field in dorsal root ganglia sensory neurones (anti MAP-2). The conditions noted are these: 10 ng/ml, cisplatin 3 μg/ml. As to the method: as §1
neurone cell bodies stained with an anti MAP 2 antibody (microtubule associated protein 2)
as §2, §3, §4, §5, §6, §7, §8, §9, §10, §11, §12

In experiment [3] the test system is rat sensory neurones. As to the kind of experiment: Neurite growth of sensory neurones in primary culture (anti β-Tubulin, In Cell Analyzer). As to the method:
Rat sensory neurones were prepared according to the method described by Hall et al. 1997 (Hall A K, Ai X, Hickman G E, MacPhedran S E, Nduaguba C O, Robertson C P. The generation of neuronal heterogeneity in a rat sensory ganglion. J. Neurosci. 1997 Apr. 15; 17(8):2775-84). Briefly, female rats (15 days gestation) were killed by cervical dislocation (Rats Wistar; Janvier, Le Genest-St-Isle, France) and the foetuses removed from the uterus. Their spinal cords with the dorsal root ganglia (DRG) were removed and placed in ice-cold medium of Leibovitz (L15, Fisher 11415-049) containing Penicillin 50 Ul/ml-Streptomycin 50 pg/ml (PS, 1%) and bovine serum albuminutes (BSA 1%, Sigma A6003). The DRG were recovered and dissociated by trypsinisation for 20 minutes at 37° C. (trypsin EDTA 10×, 10%, Fisher 15400054) diluted in PBS without calcium and magnesium (Fisher 2007-03). The reaction was stopped by addition of Dulbecco modified Eagle medium (DMEM, Fisher 21969-035) containing DNase I grade II (0.1 mg/ml Roche diagnostic 104159) and foetal bovine serum (FBS 10%, Fisher 10270-098). The cell suspension was triturated with a 10 ml pipette and centrifuged at 350×g for 10 minutes at room temperature. The pellet of dissociated cells was then resuspended in defined culture medium.
Viable cells were counted in a Neubauer cytometer using the trypan blue exclusion test (Sigma) and seeded at a density of 25 000 cells/well in 96 well-plates (Nunc). Wells were pre-coated with poly-L-lysine (10 μg/ml, Sigma P2636) in ultra pure sterile water (Merck Eurolab 60759.01).
Cells were allowed to adhere for 2 hours and maintained in a humidified incubator at 37° C. in 5% CO2/95% air atmosphere.
The culture medium was changed into a defined culture medium after a 12 hours incubation period following the conditions described below:
NGF 50 ng/ml and 10 ng/ml (in 0.1% DMSO)
After 6 hours, 12 hours and 24 hours of incubation with 7β-OH EPIA, cells were fixed for 5 minutes in an ethanol/acetic acid solution (95%/5%) at −20° C. and rinsed 3 times in PBS.
Motor neurones and sensory neurones were labelled by monoclonal anti β-Tubulin antibody (Sigma T8660) diluted at 1:400 in incubation solution (PBS with 5% of FCS and 0.1% of saponin, Sigma S-7900). This antibody specifically labels neurone cell bodies and neurites.
After 2 hours of incubation, the cells were washed in PBS and incubated with Alexa Fluor 488 goat anti mouse IgG (Molecular Probes A11001) diluted at 1:300 in incubation solution to reveal the 8-Tubulin III antibodies.
Analysis of the total length of neurones labelled with anti β-Tubulin antibodies (neurones) were carried out using In Cell Analyzer 1000 3.2.Workstation software.
The results were expressed in percentage compared to the vehicle. Comparison of groups was carried out using the unpaired T test.

Take “NGF: Nerve Growth Factor, a specific growth factor for sensory neurones; reference compound”: the “% Control without cisplatin (neurite length)” value turned out to be 117% in the experiment on rat sensory neurones [1] (48 hours) and 113% in the experiment on rat sensory neurones [1] (72 hours). The Mean neurite length in the experiment on rat sensory neurones [1] (48 hours) is recorded as 6362.44 μm; with rat sensory neurones [1] (72 hours), 6000.30 μm. Further, the “% Control without cisplatin (cell bodies)” value with rat sensory neurones [2] (48 hours) worked out at 96%; in the experiment on rat sensory neurones [2] (72 hours), 1.2%. Further, the entries for the “number of cell bodies per field, Average” value in the experiment on rat sensory neurones [2] (48 hours) and in the experiment with rat sensory neurones [2] (72 hours) were 58.33 and 54.92, respectively. Moreover, the “Neurites length per field, % Vehicle” value is on record as 191% in the experiment on rat sensory neurones [3] (10 ng/ml, 6 hours); 128% with rat sensory neurones [3] (10 ng/ml, 12 hours); 371% in the experiment on rat sensory neurones [3] (10 ng/ml, 24 hours); 273% with rat sensory neurones [3] (50 ng/ml, 6 hours); 216% with rat sensory neurones [3] (50 ng/ml, 12 hours); 309% in the experiment on rat sensory neurones [3] (50 ng/ml, 24 hours). Moreover, the “Neurites length per field, Mean” value in the experiment with rat sensory neurones [3] (10 ng/ml, 6 hours) is listed as 195.2 μm; in the experiment with rat sensory neurones [3] (10 ng/ml, 12 hours), 381.3 μm; with rat sensory neurones [3] (10 ng/ml, 24 hours), 819.9 μm; in the experiment on rat sensory neurones [3] (50 ng/ml, 6 hours), 279.1 μm; in the experiment with rat sensory neurones [3] (50 ng/ml, 12 hours), 644.3 μm; in the experiment on rat sensory neurones [3] (50 ng/ml, 24 hours), 682.1 μm.
